# Measured values reported in patent US6150350A, “Antimicrobial compositions” (Hoffman-la Roche Inc., priority 1997, dated 2000).
# Counter-ions that a name gives are not always drawn.
# Tests used:
# [1] = tested on: 17 highly resistant MRSA strains; test: In vitro activity: minimum inhibitory concentration (MIC) by the agar dilution method in Mueller Hinton agar, 17 highly resistant MRSA strains; format: cell-based, Methicillin resistant Staphylococcus aureus (MRSA); conditions: inoculum =10^5 CFU/spot
# Description: In vitro activity was determined by minimum inhibitory concentration (MIC) by the agar dilution method in Mueller Hinton agar inoculum =10^5 CFU/spot.
# MRSA = conditions: alone; in words; cited from earlier work
# β-lactamase = conditions: in words; cited from earlier work
# [2] = tested on: Gram-positive and Gram negative pathogens; conditions: carbapenems alone; in words; cited from earlier work
Structure (SMILES),"MIC50 ([1]; Table 1, substance alone)","MIC90 ([1]; Table 1, substance alone)","MIC50 ([1]; Table 2, substance alone)","MIC90 ([1]; Table 2, substance alone)","range of MIC ([1]; Table 1, substance alone)","range of MIC ([1]; Table 2, substance alone)",activity against MRSA (MRSA),β-lactamase inhibition (β-lactamase),spectrum of antibacterial activity [2]
"CCN1CCN(C(=O)N[C@@H](C(=O)N[C@@H]2C(=O)N3C(C(=O)O)=C(CSc4nnnn4C)CS[C@H]23)c2ccc(O)cc2)C(=O)C1=O [Cefoperazone, reference compound]",> 64 µg/mL,> 64 µg/mL,,,> 64 µg/mL,,,,
O=C(C[n+]1ccc(CN2CC/C(=C\C3=C(C(=O)[O-])N4C(=O)[C@@H](NC(=O)CSc5cc(Cl)ccc5Cl)[C@H]4SC3)C2=O)cc1)Nc1ccc(O)c(F)c1 [Ex. 10],> 16 µg/mL,> 16 µg/mL,> 16 µg/mL,> 16 µg/mL,,,,,
C[C@@H](O)[C@H]1C(=O)N2C(C(=O)O)=C(SCCN=CN)C[C@H]12 [Imipenem],> 16 µg/mL,> 16 µg/mL,,,,,do not have good activity against MRSA,good β-lactamase inhibitors,broad spectrum of antibacterial activity
"O=C(CSc1ccc2ccccc2c1)N[C@@H]1C(=O)N2C(C(=O)O)=C(/C=C3\CCN(C4CC4)C3=O)CS[C@H]12.c1c[nH]cn1 [Ex. 12, (E)-(6R,7R)-3-(1-Cyclopropyl-2-oxo-pyrrolidin-3-ylidenemethyl)-7-[2-(naphthalen-2-ylsulfanyl)-acetylamino]-8-oxo-5-thia-1-aza-bicyclo[4.2.0]oct-2-ene-2-carboxylic acid imidazole salt (1:1)]",16 µg/mL,> 16 µg/mL,16 µg/mL,> 16 µg/mL,,,,,
"O=C(CSc1ccc2ccccc2c1)N[C@@H]1C(=O)N2C(C(=O)[O-])=C(/C=C3\CCN(c4ccc(O)cc4)C3=O)CS[C@H]12.[Na+] [Ex. 13, (E)-(6R,7R)-3-[1-(4-Hydroxy-phenyl)-2-oxo-pyrrolidin-3-ylidenemethyl]-7-[2-(naphthalene-2-ylsulfanyl)-acetylamino]-8-oxo-5-thia-1-aza-bicyclo[4.2.0]oct-2-ene-2-carboxylic acid sodium salt (1:1)]",16 µg/mL,> 16 µg/mL,,,,,,,
"C[C@]1(/C=C\C#N)[C@H](C(=O)[O-])N2C(=O)C[C@H]2S1(=O)=O.[Na+] [compound B, sodium-(Z)-(2S,3S ,R)-3-(2-cyanoethenyl)-3-methyl-4,4,7-trioxo-4-thia-1-aza-bicyclo[3.2.0]heptane-2-carboxylate, reference compound]",,,> 16 µg/mL,> 16 µg/mL,,> 16 µg/mL,,,
"CN(C)CCn1nnnc1SCC1=C(C(=O)O)N2C(=O)[C@@H](NC(=O)Cc3csc(N)n3)[C@H]2SC1 [Cefotiam, reference compound]",> 64 µg/mL,> 64 µg/mL,,,> 64 µg/mL,,,,
"O=C(CSc1cc(Cl)c(Cl)cc1Cl)N[C@@H]1C(=O)N2C(C(=O)O)=C(/C=C3\CCN(C4CCNC4)C3=O)CS[C@H]12 (mixture of isomers) [Ex. 8, Mixture of (E)-(6R,7R)-8-oxo-3-[(R)- and-[(S)-2-oxo-[1,3']bipyrrolidinyl-3-ylidenemethyl]-8-oxo-7-[2-(2,4,5-trichloro-phenylsulfanyl)-acetylamino]-5-thia-1-aza-bicyclo[4.2.0]oct-2-ene-2-carboxylic acid hydrochloride]",> 16 µg/mL,> 16 µg/mL,> 16 µg/mL,> 16 µg/mL,,,,,
C[C@@H](O)[C@H]1C(=O)N2C(C(=O)O)=C(S[C@@H]3CN[C@H](C(=O)N(C)C)C3)[C@H](C)[C@H]12 [Meropenem],> 16 µg/mL,> 16 µg/mL,,,,,do not have good activity against MRSA,good β-lactamase inhibitors,broad spectrum of antibacterial activity
"O=C(CSc1cc(Cl)c(Cl)cc1Cl)N[C@@H]1C(=O)N2C(C(=O)O)=C(/C=C3\CCN(Cc4cccc(O)c4)C3=O)CS[C@H]12 [Ex. 6, (E)-(6R,7R)-3-[1-(3-Hydroxy-benzyl)-2-oxo-pyrrolidin-3-ylidenemethyl]-8-oxo-7-[2-(2,4,5-trichloro-phenylsulfanyl)-acetylamino]-5-thia-1-aza-bicyclo[4.2.0]oct-2-ene-2-carboxylic acid]",16 µg/mL,> 16 µg/mL,16 µg/mL,> 16 µg/mL,,,,,

# The next lines start with results.
"MIC50 ([1]; Table 1, substance alone)","MIC90 ([1]; Table 1, substance alone)","MIC50 ([1]; Table 2, substance alone)","MIC90 ([1]; Table 2, substance alone)","range of MIC ([1]; Table 1, substance alone)",Structure (SMILES),"range of MIC ([1]; Table 2, substance alone)",activity against MRSA (MRSA),β-lactamase inhibition (β-lactamase),spectrum of antibacterial activity [2]
> 16 µg/mL,> 16 µg/mL,> 16 µg/mL,> 16 µg/mL,,"O=C(C[n+]1ccc(CN2CC/C(=C\C3=C(C(=O)[O-])N4C(=O)[C@@H](NC(=O)CSc5ccc6ccccc6c5)[C@H]4SC3)C2=O)cc1)Nc1ccc(O)c(F)c1 [Ex. 5, (E)-(6R,7R)-3-[1-[1-[(3-Fluoro-4-hydroxy-phenylcarbamoyl)-methyl]-pyridin-1-ium-4-ylmethyl]-2-oxo-pyrrolidin-3-ylidenemethyl]-7-[2-(naphthalen-2-ylsulfanyl)-acetylamino]-8-oxo-5-thia-1-aza-bicyclo[4.2.0]oct-2-ene-2-carboxylat]",,,,
16 µg/mL,> 16 µg/mL,16 µg/mL,> 16 µg/mL,,"Cl.O=C(CSc1ccccc1)N[C@@H]1C(=O)N2C(C(=O)O)=C(/C=C3\CCN([C@@H]4CCNC4)C3=O)CS[C@H]12 [Ex. 11, (E)-(6R,7R)-8-Oxo-3-[(R)-2-oxo-[1,3']bipyrrolidinyl-3-ylidenemethyl]-7-(2-phenylsulfanyl-acetylamino)-5-thia-1-aza-bicyclo[4.2.0]oct-2-ene-2-carboxylic acid hydrochloride (1:1)]",,,,
16 µg/mL,> 16 µg/mL,,,,NS(=O)(=O)c1ccc(CN2CC/C(=C\C3=C(C(=O)O)N4C(=O)[C@@H](NC(=O)CSc5ccccc5)[C@H]4SC3)C2=O)cc1 [Ex. 14],,,,
> 64 µg/mL,> 64 µg/mL,,,> 64 µg/mL,"Cc1cc(=O)c(C(=O)N[C@@H](C(=O)N[C@@H]2C(=O)N3C(C(=O)O)=C(CSc4nnnn4C)CS[C@H]23)c2ccc(O)cc2)c[nH]1 [Cefpiramid, reference compound]",,,,
16 µg/mL,16 µg/mL,16 µg/mL,16 µg/mL,2 to 16 µg/mL,O=C(CSc1ccc2ccccc2c1)N[C@@H]1C(=O)N2C(C(=O)O)=C(/C=C3\CCN(Cc4cccc(O)c4)C3=O)CS[C@H]12 [Ex. 7],2 to 16 µg/mL,,,
> 64 µg/mL,> 64 µg/mL,,,> 64 µg/mL,"CO/N=C(\C(=O)N[C@@H]1C(=O)N2C(C(=O)O)=C(CSc3nc(=O)c(=O)[nH]n3C)CS[C@H]12)c1csc(N)n1 [Ceftriaxone, reference compound]",,,,
> 16 µg/mL,> 16 µg/mL,> 16 µg/mL,> 16 µg/mL,,"O=C(C[n+]1ccc(CN2CC/C(=C\C3=C(C(=O)[O-])N4C(=O)[C@@H](NC(=O)CSc5cc(Cl)c(Cl)cc5Cl)[C@H]4SC3)C2=O)cc1)Nc1ccc(O)cc1 [Ex. 1, (E)-(6R,7R)-3-[1-[1-[(4-Hydroxy-phenylcarbamoyl)-methyl]-pyridin-1-ium-4-ylmethyl]-2-oxo-pyrrolidin-3-ylidenemethyl]-8-oxo-7-[2-(2,4,5-trichloro-phenylsulfanyl)-acetylamino]-5-thia-1-aza-bicyclo[4.2.0]oct-2-ene-2-carboxylate]",,,,
> 16 µg/mL,> 16 µg/mL,> 16 µg/mL,> 16 µg/mL,,"O=C(C[n+]1ccc(CN2CC/C(=C\C3=C(C(=O)[O-])N4C(=O)[C@@H](NC(=O)CSc5nc6ccccc6s5)[C@H]4SC3)C2=O)cc1)Nc1ccc(O)cc1 [Ex. 2, (E)-(6R,7R)-3-[1-[1-[(4-Hydroxy-phenylcarbamoyl)-methyl]-pyridin-1-ium-4-ylmethyl]-2-oxo-pyrrolidin-3-ylidenemethyl]-8-oxo-7-[2-(1-benzothiazol-2-ylsulfanyl)-acetylamino]-5-thia-1-aza-bicyclo[4.2.0]oct-2-ene-2-carboxylate]",,,,
16 µg/mL,> 16 µg/mL,,,,"O=C(CSc1nc2ccccc2s1)N[C@@H]1C(=O)N2C(C(=O)O)=C(/C=C3\CCN(CC4CC4)C3=O)CS[C@H]12 [Ex. 3, (E)-(6R,7R)-7-[2-(Benzothiazol-2-ylsulfanyl)-acetylamino]-3-(1-cyclopropyl-methyl-2-oxo-pyrrolidin-3-ylidenemethyl)-8-oxo-5-thia-1-aza-bicyclo[4.2.0]-oct-2-ene-2-carboxylic acid]",,,,
16 µg/mL,16 µg/mL,16 µg/mL,16 µg/mL,,"O=C(C[n+]1ccc(CN2CC/C(=C\C3=C(C(=O)[O-])N4C(=O)[C@@H](NC(=O)CSc5ccccc5)[C@H]4SC3)C2=O)cc1)Nc1ccc(O)c(F)c1 [Ex. 9, (E)-(6R,7R)-3-[1-[1-[(3-Fluoro-4-hydroxy-phenylcarbamoyl)-methyl]-pyridin-1-ium-4-ylmethyl]-2-oxo-pyrrolidin-3-ylidenemethyl]-8-oxo-7-(2-phenylsulfanyl-acetylamino)-5-thia-1-aza-bicyclo[4.2.0]oct-2-ene-2-carboxylate]",,,,
> 64 µg/mL,> 64 µg/mL,,,> 64 µg/mL,"CO/N=C(\C(=O)N[C@@H]1C(=O)N2C(C(=O)O)=C(COC(C)=O)CS[C@H]12)c1csc(N)n1 [Cefotaxime, reference compound]",,,,
> 16 µg/mL,> 16 µg/mL,> 16 µg/mL,> 16 µg/mL,,"O=C(C[n+]1ccc(CN2CC/C(=C\C3=C(C(=O)[O-])N4C(=O)[C@@H](NC(=O)CSc5ccncc5)[C@H]4SC3)C2=O)cc1)Nc1ccc(O)cc1 [Ex. 4, (E)-(6R,7R)-3-[1-[1-[(4-Hydroxy-phenylcarbamoyl)-methyl]-pyridin-1-ium-4-ylmethyl]-2-oxo-pyrrolidin-3-ylidenemethyl]-8-oxo-7-[2-(pyridin-4-yl-sulfanyl)-acetylamino]-5-thia-1-aza-bicyclo[4.2.0]oct-2-ene-2-carboxylate]",,,,
